Results from the supplement of paper PMC10307832.

How the values were obtained:
Assay in all cases: relative viability (nuclei count vs DMSO), 5 days (fraction); higher = more cells survive
[1] = system: EBC-1
Outline: (§1)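 Lung cancer cell lines were seeded in 1536-well plates and dosed by pin tool the next day, with either a single drug or a fixed anchor-drug dose combined with five library-drug doses (not always all listed) spaced in √10 steps. Five days later, one step fixed the cells and stained their nuclei (final 0.05% Triton X-100, 1% formaldehyde, 1 ug/ml Hoechst), and nuclei were counted on 4× images. Relative viability is the nuclei count in treated wells divided by the count in vehicle wells, and each value is the median of duplicate plates.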

[2] = system: NCI-H1299
Outline: as §1

[3] = system: NCI-H1563
Outline: as §1

[4] = system: IA-LM
Outline: as §1

[5] = system: A549
Outline: as §1

[6] = system: NCI-H1703
Outline: as §1

[7] = system: Calu-6
Outline: as §1

With `Cc1cnc(-c2cnc(NCCNc3ccc(C#N)cn3)nc2-c2ccc(Cl)cc2Cl)[nH]1` + C[C@]1(O)C[C@@H](c2nc(-c3ccc4ccc(-c5ccccc5)nc4c3)c3c(N)nccn32)C1 [Linsitinib] (partner 1 µM) the relative viability ([1]; first compound 0.08 µM) was 0.913, the relative viability ([1]; first compound 0.253 µM) was 0.713 and the relative viability ([1]; first compound 0.8 µM) was 0.859. For the same compound, the relative viability ([1]; first compound 2.53 µM) was 0.819, the relative viability ([2]; first compound 0.08 µM) was 0.882 and the relative viability ([2]; first compound 0.253 µM) was 0.967. The relative viability ([2]; first compound 0.8 µM) was 0.503, the relative viability ([2]; first compound 2.53 µM) was 0.861 and the relative viability ([3]; first compound 0.08 µM) was 1.33. For the same compound, the relative viability ([3]; first compound 0.253 µM) was 1.2, the relative viability ([3]; first compound 0.8 µM) was 1.22 and the relative viability ([3]; first compound 2.53 µM) was 1.1. It also gave a relative viability ([4]; first compound 0.08 µM) of 0.604, a relative viability ([4]; first compound 0.253 µM) of 0.257 and a relative viability ([4]; first compound 0.8 µM) of 0.744. The relative viability ([4]; first compound 2.53 µM) was 0.542, the relative viability ([5]; first compound 0.08 µM) was 0.719 and the relative viability ([5]; first compound 0.253 µM) was 0.477. For the same compound, the relative viability ([5]; first compound 0.8 µM) was 0.468, the relative viability ([5]; first compound 2.53 µM) was 0.548 and the relative viability ([6]; first compound 0.08 µM) was 0.986. The relative viability ([6]; first compound 0.253 µM) was 0.631, the relative viability ([6]; first compound 0.8 µM) was 0.884 and the relative viability ([6]; first compound 2.53 µM) was 1.21. The relative viability ([7]; first compound 0.08 µM) was 1.01, the relative viability ([7]; first compound 0.253 µM) was 0.888 and the relative viability ([7]; first compound 2.53 µM) was 0.971.
`O=c1[nH]c2ccccc2n1C1CCN(CCCC(c2ccc(F)cc2)c2ccc(F)cc2)CC1` [Pimozide] + CC(C)C[C@H](NC(=O)[C@H](Cc1ccccc1)NC(=O)c1cnccn1)B(O)O [Bortezomib] (partner 0.002 µM) was tested, and the relative viability ([1]; first compound 0.08 µM) was 0.517, the relative viability ([1]; first compound 0.253 µM) was 0.557 and the relative viability ([1]; first compound 0.8 µM) was 0.532. The relative viability ([1]; first compound 2.53 µM) was 0.439, the relative viability ([1]; first compound 8 µM) was 0.381 and the relative viability ([2]; first compound 0.08 µM) was 0.984. It also gave a relative viability ([2]; first compound 0.253 µM) of 1.05, a relative viability ([2]; first compound 0.8 µM) of 0.975 and a relative viability ([2]; first compound 2.53 µM) of 1.01. It also gave a relative viability ([2]; first compound 8 µM) of 0.976, a relative viability ([3]; first compound 0.08 µM) of 0.848 and a relative viability ([3]; first compound 0.253 µM) of 0.936. It also gave a relative viability ([3]; first compound 0.8 µM) of 0.855, a relative viability ([3]; first compound 2.53 µM) of 0.67 and a relative viability ([3]; first compound 8 µM) of 0.583. It also gave a relative viability ([4]; first compound 0.08 µM) of 0.789, a relative viability ([4]; first compound 0.253 µM) of 0.792 and a relative viability ([4]; first compound 0.8 µM) of 0.856. The relative viability ([4]; first compound 2.53 µM) was 0.901, the relative viability ([4]; first compound 8 µM) was 0.692 and the relative viability ([6]; first compound 0.08 µM) was 0.206. It also gave a relative viability ([6]; first compound 0.253 µM) of 0.337, a relative viability ([6]; first compound 0.8 µM) of 0.379 and a relative viability ([6]; first compound 2.53 µM) of 0.227. It also gave a relative viability ([6]; first compound 8 µM) of 0.306, a relative viability ([7]; first compound 0.08 µM) of 1 and a relative viability ([7]; first compound 0.253 µM) of 1.15. It also gave a relative viability ([7]; first compound 0.8 µM) of 0.969, a relative viability ([7]; first compound 2.53 µM) of 1.04 and a relative viability ([7]; first compound 8 µM) of 0.856.
Work on `Cc1cnc(-c2cnc(NCCNc3ccc(C#N)cn3)nc2-c2ccc(Cl)cc2Cl)[nH]1` + C[C@@H](Oc1cc(-c2cnn(C3CCNCC3)c2)cnc1N)c1c(Cl)ccc(F)c1Cl [Crizotinib] (partner 1 µM) yielded a relative viability ([1]; first compound 0.08 µM) of 0.191, a relative viability ([1]; first compound 0.253 µM) of 0.217 and a relative viability ([1]; first compound 0.8 µM) of 0.191. For the same compound, the relative viability ([1]; first compound 2.53 µM) was 0.19, the relative viability ([2]; first compound 0.08 µM) was 0.963 and the relative viability ([2]; first compound 0.253 µM) was 0.952. The relative viability ([2]; first compound 0.8 µM) was 0.989, the relative viability ([2]; first compound 2.53 µM) was 0.845 and the relative viability ([3]; first compound 0.08 µM) was 0.92. The relative viability ([3]; first compound 0.253 µM) was 0.891, the relative viability ([3]; first compound 0.8 µM) was 0.767 and the relative viability ([3]; first compound 2.53 µM) was 0.903. The relative viability ([4]; first compound 0.08 µM) was 0.835, the relative viability ([4]; first compound 0.253 µM) was 0.817 and the relative viability ([4]; first compound 0.8 µM) was 0.903. It also gave a relative viability ([4]; first compound 2.53 µM) of 0.803, a relative viability ([5]; first compound 0.08 µM) of 0.784 and a relative viability ([5]; first compound 0.253 µM) of 0.692. For the same compound, the relative viability ([5]; first compound 0.8 µM) was 0.964, the relative viability ([5]; first compound 2.53 µM) was 0.803 and the relative viability ([6]; first compound 0.08 µM) was 0.93. The relative viability ([6]; first compound 0.253 µM) was 0.622, the relative viability ([6]; first compound 0.8 µM) was 0.861 and the relative viability ([6]; first compound 2.53 µM) was 0.73. The relative viability ([7]; first compound 0.08 µM) was 0.862, the relative viability ([7]; first compound 0.253 µM) was 0.752 and the relative viability ([7]; first compound 0.8 µM) was 0.81. It also gave a relative viability ([7]; first compound 2.53 µM) of 0.513.
`Cc1cnc(-c2cnc(NCCNc3ccc(C#N)cn3)nc2-c2ccc(Cl)cc2Cl)[nH]1` + CC1(C)CCC(c2ccc(Cl)cc2)=C(CN2CCN(c3ccc(C(=O)NS(=O)(=O)c4ccc(N[C@H](CCN5CCOCC5)CSc5ccccc5)c(S(=O)(=O)C(F)(F)F)c4)cc3)CC2)C1 [Navitoclax] (partner 0.5 µM) gave a relative viability ([1]; first compound 0.08 µM) of 0.399, a relative viability ([1]; first compound 0.253 µM) of 0.351 and a relative viability ([1]; first compound 0.8 µM) of 0.542. For the same compound, the relative viability ([1]; first compound 2.53 µM) was 0.23, the relative viability ([2]; first compound 0.08 µM) was 1.04 and the relative viability ([2]; first compound 0.253 µM) was 1.02. It also gave a relative viability ([2]; first compound 0.8 µM) of 1.09, a relative viability ([2]; first compound 2.53 µM) of 1.04 and a relative viability ([4]; first compound 0.08 µM) of 0.78. For the same compound, the relative viability ([4]; first compound 0.253 µM) was 0.71, the relative viability ([4]; first compound 0.8 µM) was 0.809 and the relative viability ([4]; first compound 2.53 µM) was 0.695. It also gave a relative viability ([5]; first compound 0.08 µM) of 1.23, a relative viability ([5]; first compound 0.253 µM) of 1.18 and a relative viability ([5]; first compound 0.8 µM) of 1.21. The relative viability ([5]; first compound 2.53 µM) was 1.18, the relative viability ([6]; first compound 0.08 µM) was 1.15 and the relative viability ([6]; first compound 0.253 µM) was 1.03. For the same compound, the relative viability ([6]; first compound 0.8 µM) was 1.2, the relative viability ([6]; first compound 2.53 µM) was 1.08 and the relative viability ([7]; first compound 0.08 µM) was 0.826. It also gave a relative viability ([7]; first compound 0.253 µM) of 0.773, a relative viability ([7]; first compound 0.8 µM) of 0.789 and a relative viability ([7]; first compound 2.53 µM) of 0.717.
